Experimental data taken from paper PMC4476799, “Englerin A Agonizes the TRPC4/C5 Cation Channels to Inhibit Tumor Cell Line Proliferation” (PLoS ONE, 2015).
pEC50, pIC50: −log10 of the molar value. Like-named read-outs stand apart in the source and are kept apart here.

Tested on: cancer cell lines from the cancer cell line encyclopedia (CCLE)
Assay: Cell line profiling (CLiP) proliferation experiment
Assay type: cell-based
Details: Homo sapiens; for pIC50: read-out: Crossing Point; for pEC50: read-out: Inflection Point
Protocol: Compound profiling experiment and data analysis was performed as previously described. Data was imported and plotted using the Tibco Spotfire DXP application. Lines were categorized as sensitive, intermediate and refractory as follows: Amax<-40 & Inflection Point <2 ~ Sensitive, Amax>-20 & Inflection Point >10 ~ Refractory, all else were called Intermediate. Cancer Cell line HG-U133 Plus 2 data was processed and normalized as described. […] Five sets of refractory cell lines were generated from the pool of refractory cell lines trying to match the lineage composition of the set of sensitive cell lines. The limma package was used as previously described to perform the statistical comparison.

[1] = NCI-H1666, cell line NCI-H1666 (lung)
[2] = NCI-H1703, cell line NCI-H1703 (lung)
[3] = NCI-H1734, cell line NCI-H1734 (lung)
[4] = NCI-H1793, NCI-H1793, lung, adenocarcinoma
[5] = NCI-H2122, NCI-H2122, lung, adenocarcinoma
[6] = NCI-H2405, NCI-H2405, lung, adenocarcinoma
[7] = NCI-H3255, NCI-H3255, lung, adenocarcinoma
[8] = NUGC-4, NUGC-4, stomach, signet_ring_adenocarcinoma
[9] = OC-314, OC 314, ovary, serous_carcinoma
[10] = OCI-LY19, OCI-LY-19, haematopoietic_and_lymphoid_tissue, diffuse_large_B_cell_lymphoma
[11] = P12-Ichikawa, P12-ICHIKAWA cells
[12] = P12-Ichikawa, cell line P12-ICHIKAWA

SMILES: CC(C)[C@@]12C[C@@H](O)[C@@](C)(O1)[C@@H]1CC[C@@H](C)[C@H]1[C@@H]2OC(=O)/C=C/c1ccccc1 [Englerin B]
- pIC50 [1]: 4.65
- pEC50 [1]: 4.64
- pIC50 (NCI-H1693, cell line NCI-H1693 (lung)): < 4.52
- pIC50 (NCI-H1693, cell line NCI-H1693): < 4.52
- pIC50 [2]: 4.83
- pEC50 [2]: 4.64
- pIC50 [3]: 4.71
- pEC50 [3]: 4.71
- pIC50 (NCI-H1792, NCI-H1792, lung, adenocarcinoma): 4.60
- pIC50 (NCI-H1792, cell line NCI-H1792 (lung, adenocarcinoma)): 4.60
- pIC50 [4]: < 4.52
- pEC50 [4]: 4.65
- pIC50 (NCI-H1793, cell line NCI-H1793): < 4.52
- pIC50 (NCI-H1944, NCI-H1944, lung, adenocarcinoma): 4.80
- pIC50 (NCI-H1944, cell line NCI-H1944): 4.80
- pIC50 (NCI-H1975, NCI-H1975, lung, adenocarcinoma): < 4.52
- pIC50 (NCI-H1975, NCI-H1975 cells): < 4.52
- pIC50 [5]: < 4.52
- pEC50 [5]: 4.98
- pIC50 (NCI-H2122, cell line NCI-H2122): < 4.52
- pIC50 (NCI-H2126, NCI-H2126, lung, adenocarcinoma): < 4.52
- pIC50 (NCI-H2126, NCI-H2126 cells): < 4.52
- pIC50 (NCI-H2170, NCI-H2170, lung, squamous_cell_carcinoma): < 4.52
- pIC50 (NCI-H2170, cell line NCI-H2170): < 4.52
- pIC50 [6]: < 4.52
- pEC50 [6]: 4.83
- pIC50 (NCI-H2405, cell line NCI-H2405): < 4.52
- pIC50 (NCI-H2452, NCI-H2452, pleura, NS): < 4.52
- pIC50 (NCI-H2452, cell line NCI-H2452): < 4.52
- pIC50 [7]: 4.57
- pEC50 [7]: 4.57
- pIC50 (NCI-H3255, NCI-H3255 cells): 4.57
- pEC50 (NCI-H3255, NCI-H3255 cells): 4.57
- pIC50 (NUGC-3, NUGC-3, stomach, NS): < 4.52
- pIC50 (NUGC-3, NUGC-3 cells): < 4.52
- pIC50 [8]: 4.66
- pEC50 [8]: 4.80
- pEC50 (NUGC-4, NUGC-4 cells): 4.80
- pIC50 (OAW-42, OAW42, ovary, adenocarcinoma): < 4.52
- pIC50 (OAW-42, OAW42 cells): < 4.52
- pIC50 [9]: < 4.52
- pEC50 [9]: 4.83
- pIC50 (OC-314, OC 314 cells): < 4.52
- pEC50 (OC-314, OC 314 cells): 4.83
- pIC50 (OCI-AML2, OCI-AML2, haematopoietic_and_lymphoid_tissue, acute_myeloid_leukaemia): 4.79
- pIC50 (OCI-AML-3, OCI-AML3, haematopoietic_and_lymphoid_tissue, acute_myeloid_leukaemia): 4.74
- pIC50 [10]: 4.85
- pEC50 [10]: 4.83
- pEC50 (OCI-LY19, OCI-LY-19 cells): 4.83
- pIC50 (OCI-Ly3, OCI-LY3, haematopoietic_and_lymphoid_tissue, diffuse_large_B_cell_lymphoma): 4.88
- pIC50 (OE19, OE19, oesophagus, adenocarcinoma): 4.69
- pIC50 (OS-RC-2, OS-RC-2 cells): < 4.52
- pEC50 (OS-RC-2, OS-RC-2 cells): 4.94
- pIC50 (OS-RC-2, cell line OS-RC-2): < 4.52
- pEC50 (OS-RC-2, cell line OS-RC-2): 4.94
- pIC50 (OV-90, OV-90 cells): < 4.52
- pIC50 (OV-90, cell line OV-90): < 4.52
- pIC50 (OVCAR-4, cell line OVCAR-4): 4.53
- pIC50 (OVCAR-8, cell line OVCAR-8): 4.68
- pEC50 (OVSAHO, OVSAHO cells): 4.74
- pIC50 (OVSAHO, cell line OVSAHO): 4.63
- pEC50 (OVSAHO, cell line OVSAHO): 4.74
- pIC50 (P3HR-1, cell line P3HR-1): 4.59
- pIC50 [11]: 4.72
- pEC50 [11]: 4.72
- pIC50 [12]: 4.72
- pEC50 [12]: 4.72
- pIC50 (P31-FUJ, cell line P31/FUJ): 4.71
- pIC50 (PANC-1, cell line PANC-1): 4.62
- pIC50 (PANC-03-27, cell line Panc 03.27): 4.67
- pIC50 (PC-14, cell line PC-14): 4.67
- pEC50 (PF-382, PF-382 cells): 4.88
- pIC50 (PF-382, cell line PF-382): 4.78
- pEC50 (PF-382, cell line PF-382): 4.88
- pIC50 (PLC-PRF-5, PLC/PRF/5 (liver)): 4.84
- pIC50 (PLC-PRF-5, cell line PLC/PRF/5): 4.84
- pIC50 (PSN1, cell line PSN1): 4.53
- pIC50 (Panc 02.03, Panc 02.03 cells): < 4.52
- pIC50 (Panc 02.03, cell line Panc 02.03): < 4.52
- pIC50 (Panc 04.03, Panc 04.03 cells): < 4.52
- pIC50 (Panc 04.03, cell line Panc 04.03): < 4.52
- pEC50 (Panc1005, Panc 10.05 cells): 4.96
- pIC50 (Panc1005, cell line Panc 10.05): 4.88
- pEC50 (Panc1005, cell line Panc 10.05): 4.96
- pIC50 (RD, RD cells): < 4.52
- pIC50 (REH, Reh cells): 4.67
- pEC50 (REH, Reh cells): 4.67
- pIC50 (RPMI 8402, RPMI-8402 cells): 4.72
- pIC50 (RPMI 8402, cell line RPMI-8402): 4.72
- pIC50 (RPMI-7951, cell line RPMI-7951): 4.71
- pEC50 (RPMI-7951, cell line RPMI-7951): 4.86
- pIC50 (RPMI-8226, cell line RPMI 8226): 4.77
